ChEMBL document CHEMBL5465560, “Selectivity Literature for EUbOPEN Chemogenomic Library” (2024)

Tests used:
[1] = target: T1, Ephrin type-B receptor 2 (Homo sapiens) (UniProt P29323); test: Selectivity interaction (KinomeScan (DiscoverX)) EUB0000229b EPHB2; details: at 10 µM
T1 sequence (whole entry): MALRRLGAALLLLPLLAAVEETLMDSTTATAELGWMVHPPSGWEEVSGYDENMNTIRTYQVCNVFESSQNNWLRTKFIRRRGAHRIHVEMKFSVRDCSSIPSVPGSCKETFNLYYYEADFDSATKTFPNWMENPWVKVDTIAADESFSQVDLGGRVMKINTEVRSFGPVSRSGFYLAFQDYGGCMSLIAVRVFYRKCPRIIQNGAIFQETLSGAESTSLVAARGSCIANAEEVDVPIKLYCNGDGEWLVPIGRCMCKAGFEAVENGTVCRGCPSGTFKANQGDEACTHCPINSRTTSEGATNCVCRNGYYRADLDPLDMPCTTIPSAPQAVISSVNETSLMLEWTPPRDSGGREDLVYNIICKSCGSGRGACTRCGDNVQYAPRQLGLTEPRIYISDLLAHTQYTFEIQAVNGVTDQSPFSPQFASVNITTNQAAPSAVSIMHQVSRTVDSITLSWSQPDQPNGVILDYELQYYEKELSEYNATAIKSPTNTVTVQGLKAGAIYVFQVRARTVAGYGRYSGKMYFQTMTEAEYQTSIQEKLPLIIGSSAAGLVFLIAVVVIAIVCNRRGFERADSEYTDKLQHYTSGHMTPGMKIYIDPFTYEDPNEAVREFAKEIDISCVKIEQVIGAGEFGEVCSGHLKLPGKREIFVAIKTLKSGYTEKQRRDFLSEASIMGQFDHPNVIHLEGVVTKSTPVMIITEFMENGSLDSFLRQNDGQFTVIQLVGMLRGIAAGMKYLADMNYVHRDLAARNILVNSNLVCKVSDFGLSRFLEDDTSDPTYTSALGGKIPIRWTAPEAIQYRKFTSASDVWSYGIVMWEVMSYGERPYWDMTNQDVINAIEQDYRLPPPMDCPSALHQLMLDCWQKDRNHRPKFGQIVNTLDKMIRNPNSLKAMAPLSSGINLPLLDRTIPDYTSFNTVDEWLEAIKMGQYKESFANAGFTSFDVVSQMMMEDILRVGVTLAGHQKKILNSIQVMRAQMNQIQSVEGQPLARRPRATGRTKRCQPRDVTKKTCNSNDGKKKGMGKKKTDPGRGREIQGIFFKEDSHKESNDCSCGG

[2] = target: T2, MAP kinase-activated protein kinase 5 (Homo sapiens) (UniProt Q8IW41); test: Selectivity interaction (KinomeScan (DiscoverX)) EUB0000045b MAPKAPK5
T2 sequence (whole entry): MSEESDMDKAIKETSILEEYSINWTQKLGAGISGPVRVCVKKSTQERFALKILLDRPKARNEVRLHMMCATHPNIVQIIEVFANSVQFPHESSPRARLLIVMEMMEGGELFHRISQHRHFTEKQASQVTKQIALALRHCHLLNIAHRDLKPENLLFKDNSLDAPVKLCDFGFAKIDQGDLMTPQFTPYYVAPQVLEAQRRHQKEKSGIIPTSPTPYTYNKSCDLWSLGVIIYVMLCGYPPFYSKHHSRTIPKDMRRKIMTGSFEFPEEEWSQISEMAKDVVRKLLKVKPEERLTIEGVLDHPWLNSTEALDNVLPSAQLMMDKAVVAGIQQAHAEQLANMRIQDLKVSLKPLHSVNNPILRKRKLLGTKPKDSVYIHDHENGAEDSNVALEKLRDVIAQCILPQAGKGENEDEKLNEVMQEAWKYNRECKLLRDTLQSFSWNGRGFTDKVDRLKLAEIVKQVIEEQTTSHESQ

[3] = target: Serine/threonine-protein kinase MRCK beta (Homo sapiens) (UniProt Q9Y5S2); test: Selectivity interaction (KinomeScan (DiscoverX)) EUB0000695a CDC42BPB; details: at 100 nM
Sequence of Serine/threonine-protein kinase MRCK beta (Homo sapiens) (Q9Y5S2 whole entry): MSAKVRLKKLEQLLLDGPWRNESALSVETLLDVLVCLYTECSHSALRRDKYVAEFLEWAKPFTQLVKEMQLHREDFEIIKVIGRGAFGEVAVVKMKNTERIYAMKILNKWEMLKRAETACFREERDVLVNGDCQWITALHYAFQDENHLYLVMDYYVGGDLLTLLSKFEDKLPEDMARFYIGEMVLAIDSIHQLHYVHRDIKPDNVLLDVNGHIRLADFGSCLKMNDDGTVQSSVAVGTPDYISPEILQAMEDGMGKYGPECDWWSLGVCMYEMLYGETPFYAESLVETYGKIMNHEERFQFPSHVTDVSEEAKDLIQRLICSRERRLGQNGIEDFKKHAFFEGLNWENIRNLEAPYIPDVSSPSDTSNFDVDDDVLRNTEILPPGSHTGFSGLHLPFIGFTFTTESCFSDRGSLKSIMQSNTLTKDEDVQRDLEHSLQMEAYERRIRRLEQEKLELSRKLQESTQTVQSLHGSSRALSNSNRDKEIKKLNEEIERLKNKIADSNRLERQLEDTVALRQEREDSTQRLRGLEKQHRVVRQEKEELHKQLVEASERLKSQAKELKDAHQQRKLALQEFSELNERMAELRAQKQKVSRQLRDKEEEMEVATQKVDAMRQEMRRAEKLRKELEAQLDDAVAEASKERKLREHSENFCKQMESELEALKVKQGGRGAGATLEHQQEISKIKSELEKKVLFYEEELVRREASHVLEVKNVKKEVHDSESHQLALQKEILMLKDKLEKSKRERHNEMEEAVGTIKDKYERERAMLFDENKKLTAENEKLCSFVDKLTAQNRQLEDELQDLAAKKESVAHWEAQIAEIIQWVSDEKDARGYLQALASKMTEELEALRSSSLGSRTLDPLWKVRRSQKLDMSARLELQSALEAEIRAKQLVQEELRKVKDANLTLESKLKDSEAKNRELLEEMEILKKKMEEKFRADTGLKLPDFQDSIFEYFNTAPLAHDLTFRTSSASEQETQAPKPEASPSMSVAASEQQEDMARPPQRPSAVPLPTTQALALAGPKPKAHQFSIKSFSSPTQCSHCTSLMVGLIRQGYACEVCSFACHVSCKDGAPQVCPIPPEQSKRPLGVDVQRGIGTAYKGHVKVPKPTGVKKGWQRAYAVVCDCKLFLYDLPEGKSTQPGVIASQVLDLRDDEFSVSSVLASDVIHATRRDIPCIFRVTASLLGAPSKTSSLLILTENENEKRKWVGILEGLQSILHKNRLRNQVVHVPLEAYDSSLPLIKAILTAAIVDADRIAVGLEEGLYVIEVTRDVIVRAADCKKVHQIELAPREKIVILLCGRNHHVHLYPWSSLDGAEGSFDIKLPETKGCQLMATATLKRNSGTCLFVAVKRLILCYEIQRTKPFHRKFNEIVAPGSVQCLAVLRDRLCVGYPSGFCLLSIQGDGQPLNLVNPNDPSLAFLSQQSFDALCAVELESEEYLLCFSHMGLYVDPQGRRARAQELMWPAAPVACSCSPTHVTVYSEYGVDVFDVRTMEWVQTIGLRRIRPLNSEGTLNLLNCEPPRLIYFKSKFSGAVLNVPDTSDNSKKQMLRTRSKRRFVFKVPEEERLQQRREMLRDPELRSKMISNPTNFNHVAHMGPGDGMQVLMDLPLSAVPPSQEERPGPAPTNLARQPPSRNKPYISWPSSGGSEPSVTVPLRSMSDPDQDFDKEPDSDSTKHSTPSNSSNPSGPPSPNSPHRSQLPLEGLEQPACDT

[4] = target: T3, Serine/threonine-protein kinase DCLK1 (Homo sapiens) (UniProt O15075); test: Selectivity interaction (Kinase panel (Z-LYTE Assay)) EUB0001632a DCLK1; details: at 10 µM
T3 sequence (whole entry): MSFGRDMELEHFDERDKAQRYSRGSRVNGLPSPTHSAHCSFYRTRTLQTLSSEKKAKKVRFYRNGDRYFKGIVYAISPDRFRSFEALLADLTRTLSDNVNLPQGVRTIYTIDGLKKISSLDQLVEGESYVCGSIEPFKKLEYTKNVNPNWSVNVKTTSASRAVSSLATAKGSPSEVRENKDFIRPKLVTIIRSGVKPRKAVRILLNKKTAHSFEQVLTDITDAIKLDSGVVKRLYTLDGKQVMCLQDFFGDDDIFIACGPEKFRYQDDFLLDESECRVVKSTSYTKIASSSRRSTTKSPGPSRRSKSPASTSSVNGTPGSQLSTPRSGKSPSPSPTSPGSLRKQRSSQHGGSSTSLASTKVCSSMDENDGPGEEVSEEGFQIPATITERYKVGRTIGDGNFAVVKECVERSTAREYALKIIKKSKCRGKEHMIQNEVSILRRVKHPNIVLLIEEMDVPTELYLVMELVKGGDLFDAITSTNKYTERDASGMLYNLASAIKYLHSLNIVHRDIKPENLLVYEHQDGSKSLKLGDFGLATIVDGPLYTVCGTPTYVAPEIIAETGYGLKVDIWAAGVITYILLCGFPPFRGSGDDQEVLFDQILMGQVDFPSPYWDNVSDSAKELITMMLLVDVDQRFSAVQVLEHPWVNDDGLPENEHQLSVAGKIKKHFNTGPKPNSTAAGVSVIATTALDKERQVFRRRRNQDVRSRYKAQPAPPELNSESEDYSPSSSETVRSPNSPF

[5] = target: T4, Myosin light chain kinase family member 4 (Homo sapiens) (UniProt Q86YV6); test: Selectivity interaction (KinomeScan (DiscoverX)) EUB0001049a MYLK4; details: at 1 µM
T4 sequence (whole entry): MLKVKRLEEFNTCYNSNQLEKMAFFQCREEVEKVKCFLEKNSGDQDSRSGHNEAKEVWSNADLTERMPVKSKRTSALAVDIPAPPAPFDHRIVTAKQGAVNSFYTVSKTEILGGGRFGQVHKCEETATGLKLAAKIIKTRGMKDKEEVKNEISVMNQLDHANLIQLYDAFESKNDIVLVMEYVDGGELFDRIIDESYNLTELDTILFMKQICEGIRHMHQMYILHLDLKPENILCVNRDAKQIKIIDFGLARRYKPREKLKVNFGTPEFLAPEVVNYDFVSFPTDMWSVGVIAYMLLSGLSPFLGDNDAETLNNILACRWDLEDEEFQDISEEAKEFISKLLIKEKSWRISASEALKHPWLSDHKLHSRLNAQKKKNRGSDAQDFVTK

[6] = target: Tyrosine-protein kinase Lyn (Homo sapiens, UniProt P07948); test: Selectivity interaction (Kinase panel (Invitrogen)) EUB0000639a LYN; details: at 200 nM
Sequence of Tyrosine-protein kinase Lyn (P07948 2-512 limits assumed): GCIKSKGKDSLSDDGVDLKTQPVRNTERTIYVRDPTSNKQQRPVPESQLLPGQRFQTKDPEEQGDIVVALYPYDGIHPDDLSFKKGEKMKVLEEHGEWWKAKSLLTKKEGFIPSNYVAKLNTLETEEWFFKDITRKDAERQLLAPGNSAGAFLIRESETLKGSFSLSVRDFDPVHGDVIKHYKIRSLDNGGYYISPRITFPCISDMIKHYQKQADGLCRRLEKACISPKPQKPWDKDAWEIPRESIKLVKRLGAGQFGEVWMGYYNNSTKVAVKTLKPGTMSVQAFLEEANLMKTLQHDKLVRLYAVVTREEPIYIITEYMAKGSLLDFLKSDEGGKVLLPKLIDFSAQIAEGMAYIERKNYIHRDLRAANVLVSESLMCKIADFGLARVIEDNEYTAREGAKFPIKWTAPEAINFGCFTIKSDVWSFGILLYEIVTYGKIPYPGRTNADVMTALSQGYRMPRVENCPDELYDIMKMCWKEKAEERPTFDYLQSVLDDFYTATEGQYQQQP

[7] = target: Serine/threonine-protein kinase SBK1 (Homo sapiens) (UniProt Q52WX2); test: Selectivity interaction (Ambit KINOMEscan and KiNATiv profiling in Jurkat cells) EUB0000090b SBK1; format: cell-based; details: at 1 µM
Sequence of Serine/threonine-protein kinase SBK1 (Homo sapiens) (Q52WX2 whole entry): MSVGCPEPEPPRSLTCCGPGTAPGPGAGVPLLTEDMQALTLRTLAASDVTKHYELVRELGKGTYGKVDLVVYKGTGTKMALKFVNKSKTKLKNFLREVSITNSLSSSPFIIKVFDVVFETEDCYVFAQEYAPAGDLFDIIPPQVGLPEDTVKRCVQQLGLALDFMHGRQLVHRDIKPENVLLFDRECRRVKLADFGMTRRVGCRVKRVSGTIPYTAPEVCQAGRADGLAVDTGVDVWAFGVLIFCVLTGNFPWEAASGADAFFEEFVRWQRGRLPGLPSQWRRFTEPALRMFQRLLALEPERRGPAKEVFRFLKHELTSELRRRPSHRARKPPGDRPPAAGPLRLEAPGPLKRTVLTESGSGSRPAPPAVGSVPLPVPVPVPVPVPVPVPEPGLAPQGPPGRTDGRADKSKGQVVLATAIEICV

COc1cc(N(C)c2ccnc3ccc(C(F)(F)F)cc23)cc(OC)c1OC showed a % binding [1] of 93%.

C=CC(=O)Nc1cc(-n2c(=O)ccc3cnc4ccc(-c5ccc(NS(C)(=O)=O)cc5)cc4c32)ccc1C was tested, and the % of control ([2]; at 1 µM) was 100% and the % of control ([2]; at 10 µM) was 100%.

Compound Cc1cc(F)c(C(=O)Nc2cccc(-c3nncn3C(C)C)n2)cc1-n1cnc(C2CC2)c1 has a % of control [3] of 100%.

Cn1cc(-n2cnc3c(NCc4nc5cc(Cl)c(Cl)cc5[nH]4)nc(N4CCOCC4)nc32)cn1 was tested, and the % of control [4] was -1.19%.

With COc1cc(Nc2nc(C)cc(-c3cnn4nc(OC)ccc34)n2)cc(C(F)(F)F)c1 the % of control [5] was 100%.

CC[C@@H]1[C@H](F)C(=O)N[C@@H]1COc1nccc2cc(C(N)=O)c(OC)cc12 [ZIMLOVISERTIB] gave a % of inhibition [6] of 6.8%.

For CN(C)C/C=C/C(=O)Nc1ccc(C(=O)N2CCCC(Nc3ncc(Cl)c(-c4c[nH]c5ccccc45)n3)C2)cc1 (stereo not drawn), the % of control [7] was 100%.
